Results reported in patent US20210230170A1, “KRAS G12C INHIBITORS” (Mirati Therapeutics, Inc., priority 2018, published 2021).

What follows are molecules tested against T1, KRas G12C (Homo sapiens, UniProt P01116, G12C) (assay: Inhibition of KRas G12C in NCI-H358 cells measured by phosphorylated ERK (Phospho-ERK)). Conditions: pERK(Thr202/Tyr204) signal normalized with GAPDH, percent of DMSO control, 3 hours compound treatment.
T1 construct: NCI-H358 cells (ATCC CRL-5807) express KRas G12C; host or cells: NCI-H358
T1 sequence (P01116 1-188 isoform P01116-2 G12C): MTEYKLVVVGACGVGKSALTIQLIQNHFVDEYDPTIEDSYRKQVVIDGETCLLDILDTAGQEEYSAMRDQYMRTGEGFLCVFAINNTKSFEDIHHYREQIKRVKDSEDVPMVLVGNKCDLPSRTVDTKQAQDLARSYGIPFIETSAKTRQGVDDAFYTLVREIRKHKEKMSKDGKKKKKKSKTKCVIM
Assay type: cell-based
Experimental: The cellular inhibition of KRAs G12C by exemplary compounds of the present invention was determined by measuring the amount of a downstream marker of KRas activity, phosphorylated ERK (“Phospho-ERK”).
NCI-H358 cells (ATCC CRL-5807) express KRas G12C and were grown in RPMI medium supplemented with 10% fetal bovine serum, penicillin/streptomycin and 10 mM HEPES. Cells were plated in poly-D-Lysine coated 96-well plates at a concentration of 50,000 cells/well and allowed to attach for 8-12 hours. Diluted compounds were then added at a final concentration of 0.5% DMSO. After 3 hours, the medium was removed, 150 μL of 4% formaldehyde was added and the plates were incubated for 20 minutes. The plates were washed with PBS, and permeabilized using 150 μL of ice cold 100% methanol for 10 minutes. Non-specific antibody binding to the plates was blocked using 100 μL Licor Blocking Buffer (Li-Cor Biotechnology, Lincoln Nebr.) for 1 hour at room temperature. Positive control samples and samples lacking cells were parallel processed with test samples as standards.
The amount Phospho-ERK was determined using an antibody specific for the phosphorylated form of ERK and compared to the amount of GAPDH. Primary antibodies used for detection were added as follows: Phospho-ERK (Cell Signaling cs9101) diluted 1:500 and GAPDH (Millipore MAB374) diluted 1:5000 in Licor block+0.05% Tween 20. The plates were incubated for 2 hours at room temperature. The plates were washed with PBS+0.05% Tween 20.
Secondary antibodies used to visualize primary antibodies were added as follows: Anti-rabbit-680 diluted 1:1000 and Anti-mouse-800 diluted 1:1000 in Licor Block+0.05% Tween 20 and incubated for 1 hour at room temperature. The plates were washed with PBS+0.05% Tween 20. A 100 μL aliquot of PBS was added to each well and the plates were read on a LICOR AERIUS plate reader.
The pERK(Thr202/Tyr204) signal was normalized with the GAPDH signal and percent of DMSO control values were calculated. IC50 values were generated using a 4 parameter fit of the dose response curve. Key: “A”≤500 nM; “B”>500 nM and ND=not determined.

| IC50 [µM] | SMILES |
| --- | --- |
| ≤ 0.5 | C=CC(=O)N1CCN(c2nc(OC[C@@H]3CCCN3C)nc3c2CCCN(c2cccc(F)c2C(F)(F)F)C3)C[C@@H]1CC#N [Example 14, 2-[(2S)-4-[8-[3-fluoro-2-(trifluoromethyl)phenyl]-2-[[(2S)-1-methylpyrrolidin-2-yl]methoxy]-5,6,7,9-tetrahydropyrimido[4,5-c]azepin-4-yl]-1-prop-2-enoyl-piperazin-2-yl]acetonitrile] |
| > 0.5 | C=CC(=O)N1CCN(c2nc(OC[C@@H]3CCCN3C)nc3c2CCCN(c2cccc4ccccc24)C3)C[C@@H]1CC#N [Example 6, 2-[(2S)-4-[2-[[(2S)-1-methylpyrrolidin-2-yl]methoxy]-8-(1-naphthyl)-5,6,7,9-tetrahydropyrimido[4,5-c]azepin-4-yl]-1-prop-2-enoyl-piperazin-2-yl]acetonitrile] |
| > 0.5 | C=C(F)C(=O)N1CCN(c2nc(OC[C@@H]3CCCN3C)nc3c2CCCN(c2c(C)ccc4[nH]ncc24)C3)C[C@@H]1CC#N [Example 20, 2-[(2S)-1-(2-fluoroprop-2-enoyl)-4-[8-(5-methyl-1H-indazol-4-yl)-2-[[(2S)-1-methylpyrrolidin-2-yl]methoxy]-5,6,7,9-tetrahydropyrimido[4,5-c]azepin-4-yl]piperazin-2-yl]acetonitrile] |
